Reference: patent publication US5707987A, “Carbapenem derivatives” (Banyu Pharmaceutical Co., Ltd., priority 1994, dated 1998)
Values after ≈ are worked out from the molar mass of the structure shown. Where two headings read alike, the source gives them in different places.

Legend:
[1] = test system: DHP-I; assay type: in vitro ADME; conditions: ratio to imipenem (=1.0); the smaller the value, the higher the stability
From the text: Further, the DHP-I susceptibility was quantitatively analyzed by the method by Kropp et al., Antimicrob. Agents Chemother., vol. 22, pp. 62-70 (1982), whereby the smaller the numerical value representing the ratio to imipenem (=1.0), the higher the stability.
The DHP-1 susceptibility of the compounds of the present invention were compared with imipenem.

[2] = test system: S. aureus pMS520/Smith; assay: In vitro antibacterial activity, agar plate dilution method (MIC); assay type: cell-based; conditions: Staphylococcus aureus, 16 h, read-out: Minimum Inhibitory Concentration (MIC)
Description: (§1) One platinum loopful of each test microorganism incubated overnight in Mueller Hinton broth, was inoculated to Mueller Hinton agar (inoculum size: 10^6 CFU/ml). Such culture media contained antibacterial agents in various concentrations. […] The minimum inhibitory concentrations of the compounds of the present invention were compared with imipenem.

[3] = test system: S. aureus BB5939; assay: as above; assay type: cell-based; conditions: Staphylococcus aureus, read-out: Minimum Inhibitory Concentration (MIC)
Description: as §1

[4] = test system: gram positive bacteria and gram negative bacteria; conditions: background statement; cited from earlier work
[5] = test system: DHP-I; conditions: background statement; cited from earlier work
[6] = cited from earlier work
[7] = test system: highly methicillin-resistant Staphylococcus aureus resistant to imipenem and imipenem-resistant Pseudomonas aeruginosa; conditions: background statement; cited from earlier work
[8] = test system: β-lactamase; conditions: background statement; cited from earlier work
[9] = test system: kidney; conditions: background statement; cited from earlier work
[10] = background statement; cited from earlier work
[11] = test system: renal dehydropeptidase I (DHP-I); conditions: in vivo; cited from earlier work
[12] = S. aureus BB5939 (β-lactamase-producing bacterium per footnote), inoculum 10^6 CFU/ml, Mueller Hinton agar, 37° C., 16 hours

Row | Structure (SMILES) | DHP-I susceptibility [1] | MIC [2] [µg/mL] | MIC [3, 12] [µg/mL] | other results
1 | C[C@@H](O)[C@H]1C(=O)N2C(C(=O)[O-])=C(S[C@@H]3CN[C@H](CSc4ccccc4)C3)[C@H](C)[C@H]12.[Na+] | 0.15 | 1.56 |  | MIC ([3]; BB5939, 16 h): 0.39 µg/mL
2 | C[C@@H](O)[C@H]1C(=O)N2C(C(=O)O)=C(S[C@@H]3CN[C@H](C(O)c4ccc(-c5ccc(CN)cc5)cc4)C3)[C@H](C)[C@H]12 (single isomer, unassigned; diastereomer i) [Example 140] | < 0.05 | 1.56 (≈ 2.98 µM) | 0.78 (≈ 1.49 µM) | 
3 | C[C@@H](O)[C@H]1C(=O)N2C(C(=O)O)=C(S[C@@H]3CN[C@H](CNc4ccc(CN)cc4)C3)[C@H](C)[C@H]12.Cl [Example 121, (1R,5S,6S)-2-[(3S,5S)-5-[4-(Aminomethyl)anilinomethyl]-pyrrolidin-3-ylthio]-6-[(R)-1-hydroxyethyl]-1-methyl-1-carbapen-2-em-3-carboxylic acid monohydrochloride] | 0.15 | 1.56 | 0.39 | 
4 | C[C@@H](O)[C@H]1C(=O)N2C(C(=O)O)=C(S[C@@H]3CN[C@H](COc4ccc(CN)cc4)C3)[C@H](C)[C@H]12.Cl [Example 127, (1R,5S,6S)-2-[(3S,5S)-5-[4-(Aminomethyl)phenoxymethyl]-pyrrolidin-3-ylthio]-6-[(R)-1-hydroxyethyl]-1-methyl-1-carbapen-2-em-3-carboxylic acid monohydrochloride] | 0.15 | 3.13 | 0.78 | 
5 | C[C@@H](O)[C@H]1C(=O)N2C(C(=O)O)=C(S[C@@H]3CN[C@H](COc4ccccc4)C3)[C@H](C)[C@H]12 [Example 128, (1R,5S,6S)-6-[(R)-1-Hydroxyethyl]-1-methyl-2-[(3S,5S)-5-(phenoxymethyl)pyrrolidin-3-ylthio]-1-carbapen-2-em-3-carboxylic acid] | 0.16 |  |  | 
6 | C[C@@H](O)[C@H]1C(=O)N2C(C(=O)O)=C(S[C@@H]3CN[C@H](Cc4ccc(CN)cc4)C3)[C@H](C)[C@H]12 [Example 131] | < 0.05 | 3.13 (≈ 7.25 µM) | 0.78 (≈ 1.81 µM) | 
7 | C=CCN1C[C@@H](SC2=C(C(=O)O)N3C(=O)[C@H]([C@@H](C)O)[C@H]3[C@H]2C)C[C@H]1Cc1cccc2ccccc12 [Example 137, (1R,5S,6S)-2-[(3S,5R)-N-Allyl-5-(1-naphthylmethyl)pyrrolidin-3-ylthio]-6-[(R)-1-hydroxyethyl]-1-methyl-1-carbapen-2-em-3-carboxylic acid] | < 0.05 |  |  | 
8 | C[C@@H](O)[C@H]1C(=O)N2C(C(=O)O)=C(SCCN=CN)C[C@H]12 [Imipenem, (5R,6S)-3-[2-(formimidoylamino)ethylthie]-6-[(R)-1-hydroxyethyl]-7-oxo-1-azabicyclo[3.2.0]hept-2-en-2-carboxylic acid monohydrate] | 1.0 | > 25 |  | antibacterial activities [4]: antibacterial activities of an equal or higher level than thienamycin; decomposition by DHP-I in the human kidney [5]: likely to be decomposed by DHP-I in the human kidney; stability in the solid form or in an aqueous solution ([6]; vs thienamycin): remarkably improved over thienamycin; MIC ([3]; BB5939, 16 h): 6.25 µg/mL; treating effects against resistant bacteria [7]: does not show adequate treating effects against these resistant bacteria; β-lactamase resistance [8]: β-lactamase resistance; toxicity against the kidney [9]: presents toxicity against the kidney
9 | C[C@@H](O)[C@H]1C(=O)N2C(C(=O)O)=C(SCCN)C[C@H]12 [thienamycin] |  |  |  | antibacterial activities [4]: excellent antibacterial spectrum and strong antibacterial activities; decomposition by DHP-I in the human kidney [5]: likely to be decomposed by DHP-I in the human kidney; chemical stability ([6]; background statement): chemically unstable; recovery rate in the urine [10]: low; decomposition by renal dehydropeptidase I [11]: likely to be decomposed
10 | CN[C@H](CC(C)C)C(=O)N[C@H]1C(=O)N[C@@H](CC(N)=O)C(=O)N[C@H]2C(=O)N[C@H]3C(=O)N[C@H](C(=O)N[C@H](C(=O)O)c4cc(O)cc(O)c4-c4cc3ccc4O)[C@H](O)c3ccc(c(Cl)c3)Oc3cc2cc(c3O[C@@H]2O[C@H](CO)[C@@H](O)[C@H](O)[C@H]2O[C@H]2C[C@](C)(N)[C@H](O)[C@H](C)O2)Oc2ccc(cc2Cl)[C@H]1O [vancomycin] |  |  |  | toxicity against the kidney [9]: strong toxicity
